Earlier results, collected in PubChem BioAssay AID1259409 (Chemical Carcinogenesis Research Information System (CCRIS), 2018).

System: rodent chemically induced tumor inhibition, incidence and multiplicity
Assay: CCRIS tumor inhibitor studies
Conditions: Dose [Inhibitor]: 0, Species: MOUSE

| Structure (SMILES) | tumour outcome (control, treated, inhibition, significance) (Carcinogen: 7,12-DIMETHYLBENZ[A]ANTHRACENE, 57-97-6, 16 NMOL IN 0.1 ML ACETONE 2/WK FOR 20 WK APPLIED 40 MIN PRIOR TO EACH PROMOTER DOSE (STUDY DURATION: 21 WK), Route [Inhibitor]: DERMAL, Strain/Sex: ICR/FEMALE, Target Tissue: Type of Lesion: SKIN: TUMOR, Dose [Carcinogen]: 0.19 UMOL IN 0.1 ML ACETONE ONCE, Promoter: 12-O-TETRADECANOYLPHORBOL-13-ACETATE, 16561-29-8) | tumour outcome (control, treated, inhibition, significance) (Carcinogen: 7,12-DIMETHYLBENZ[A]ANTHRACENE, 57-97-6, 160 NMOL IN 0.1 ML ACETONE 2/WK FOR 20 WK APPLIED 40 MIN PRIOR TO EACH PROMOTER DOSE (STUDY DURATION: 21 WK), Route [Inhibitor]: DERMAL, Strain/Sex: ICR/FEMALE, Target Tissue: Type of Lesion: SKIN: TUMOR, Dose [Carcinogen]: 0.19 UMOL IN 0.1 ML ACETONE ONCE, Promoter: 12-O-TETRADECANOYLPHORBOL-13-ACETATE, 16561-29-8) | tumour outcome (control, treated, inhibition, significance) (Carcinogen: METHYLCHOLANTHRENE, 56-49-5, 5.5 MG IN 0.05 ML SUNFLOWER OIL 1/WK FOR 1 YR BEGINNING POST CARCINOGEN TREATMENT (STUDY DURATION: 24 MO), Route [Inhibitor]: GAVAGE, Strain/Sex: SWISS/FEMALE, Target Tissue: Type of Lesion: LUNG: PAPILLARY ADENOMA AND ADENOCARCINOMA, Dose [Carcinogen]: 0.01 MG ON D 1, 7, 14 AND 21 AFTER BIRTH, Promoter: NONE USED) | tumour outcome (control, treated, inhibition, significance) (Carcinogen: METHYLCHOLANTHRENE, 56-49-5, 5.5 MG IN 0.05 ML SUNFLOWER OIL 1/WK FOR 1 YR BEGINNING POST CARCINOGEN TREATMENT (STUDY DURATION: 24 MO), Route [Inhibitor]: GAVAGE, Strain/Sex: SWISS/MALE, Target Tissue: Type of Lesion: LIVER: HEPATOCELLULAR ADENOMA AND CARCINOMA, Promoter: NONE USED) | tumour outcome (control, treated, inhibition, significance) (Carcinogen: METHYLCHOLANTHRENE, 56-49-5, 5.5 MG IN 0.05 ML SUNFLOWER OIL 1/WK FOR 1 YR BEGINNING POST CARCINOGEN TREATMENT (STUDY DURATION: 24 MO), Route [Inhibitor]: GAVAGE, Strain/Sex: SWISS/MALE, Target Tissue: Type of Lesion: LUNG: PAPILLARY ADENOMA AND ADENOCARCINOMA, Dose [Carcinogen]: 0.01 MG ON D 1, 7, 14 AND 21 AFTER BIRTH, Promoter: NONE USED) | tumour outcome (control, treated, inhibition, significance) (Carcinogen: METHYLCHOLANTHRENE, 56-49-5, 5.5 MG IN 0.05 ML SUNFLOWER OIL 1/WK FOR 1 YR BEGINNING POST CARCINOGEN TREATMENT (STUDY DURATION: 24 MO), Route [Inhibitor]: GAVAGE, Strain/Sex: SWISS/MALE, Target Tissue: Type of Lesion: SKIN: SARCOMA AND CARCINOMA, Dose [Carcinogen]: 0.01 MG ON D 1, 7, 14 AND 21 AFTER BIRTH, Promoter: NONE USED) | tumour outcome (control, treated, inhibition, significance) (Carcinogen: METHYLCHOLANTHRENE, 56-49-5, 5.5 MG IN 0.05 ML SUNFLOWER OIL 1/WK FOR 1 YR BEGINNING POST CARCINOGEN TREATMENT (STUDY DURATION: 24 MO), Route [Inhibitor]: GAVAGE, Strain/Sex: SWISS/MALE, Target Tissue: Type of Lesion: SPLEEN: LYMPHOMA, Dose [Carcinogen]: 0.01 MG ON D 1, 7, 14 AND 21 AFTER BIRTH, Promoter: NONE USED) | tumour outcome (control, treated, inhibition, significance) (Carcinogen: SAFROLE, 94-59-7, 5.5 MG IN 0.05 ML SUNFLOWER OIL 1/WK FOR 1 YR BEGINNING POST CARCINOGEN TREATMENT (STUDY DURATION: 24 MO), Route [Inhibitor]: GAVAGE, Strain/Sex: SWISS/FEMALE, Target Tissue: Type of Lesion: LUNG: PAPILLARY ADENOCARCINOMA, Dose [Carcinogen]: 0.2 MG ON D 1 AND 7 AFTER BIRTH THEN 0.4 MG ON D 14 AND 21, Promoter: NONE USED) | tumour outcome (control, treated, inhibition, significance) (Carcinogen: SAFROLE, 94-59-7, 5.5 MG IN 0.05 ML SUNFLOWER OIL 1/WK FOR 1 YR BEGINNING POST CARCINOGEN TREATMENT (STUDY DURATION: 24 MO), Route [Inhibitor]: GAVAGE, Strain/Sex: SWISS/FEMALE, Target Tissue: Type of Lesion: SKIN: SARCOMA, Dose [Carcinogen]: 0.2 MG ON D 1 AND 7 AFTER BIRTH THEN 0.4 MG ON D 14 AND 21, Promoter: NONE USED) | tumour outcome (control, treated, inhibition, significance) (Carcinogen: SAFROLE, 94-59-7, 5.5 MG IN 0.05 ML SUNFLOWER OIL 1/WK FOR 1 YR BEGINNING POST CARCINOGEN TREATMENT (STUDY DURATION: 24 MO), Route [Inhibitor]: GAVAGE, Strain/Sex: SWISS/MALE, Target Tissue: Type of Lesion: LIVER: HEPATOCELLULAR CARCINOMA, Dose [Carcinogen]: 0.2 MG ON D 1 AND 7 AFTER BIRTH THEN 0.4 MG ON D 14 AND 21, Promoter: NONE USED) | tumour outcome (control, treated, inhibition, significance) (Carcinogen: SAFROLE, 94-59-7, 5.5 MG IN 0.05 ML SUNFLOWER OIL 1/WK FOR 1 YR BEGINNING POST CARCINOGEN TREATMENT (STUDY DURATION: 24 MO), Route [Inhibitor]: GAVAGE, Strain/Sex: SWISS/MALE, Target Tissue: Type of Lesion: LUNG: PAPILLARY ADENOCARCINOMA, Dose [Carcinogen]: 0.2 MG ON D 1 AND 7 AFTER BIRTH THEN 0.4 MG ON D 14 AND 21, Promoter: NONE USED) | tumour outcome (control, treated, inhibition, significance) (Carcinogen: SAFROLE, 94-59-7, 5.5 MG IN 0.05 ML SUNFLOWER OIL 1/WK FOR 1 YR BEGINNING POST CARCINOGEN TREATMENT (STUDY DURATION: 24 MO), Route [Inhibitor]: GAVAGE, Strain/Sex: SWISS/MALE, Target Tissue: Type of Lesion: SKIN: SARCOMA, Dose [Carcinogen]: 0.2 MG ON D 1 AND 7 AFTER BIRTH THEN 0.4 MG ON D 14 AND 21, Promoter: NONE USED) | tumour outcome (control, treated, inhibition, significance) (Carcinogen: SAFROLE, 94-59-7, 5.5 MG IN 0.05 ML SUNFLOWER OIL 1/WK FOR 1 YR BEGINNING POST CARCINOGEN TREATMENT (STUDY DURATION: 24 MO), Route [Inhibitor]: GAVAGE, Strain/Sex: SWISS/MALE, Target Tissue: Type of Lesion: SPLEEN: LYMPHOMA, Dose [Carcinogen]: 0.2 MG ON D 1 AND 7 AFTER BIRTH THEN 0.4 MG ON D 14 AND 21, Promoter: NONE USED) | tumour outcome (control, treated, inhibition, significance) (Carcinogen: SAFROLE, 94-59-7, 5.5 MG IN 0.05 ML SUNFLOWER OIL 1/WK FOR 1 YR BEGINNING POST CARCINOMA TREATMENT (STUDY DURATION: 24 MO), Route [Inhibitor]: GAVAGE, Strain/Sex: SWISS/FEMALE, Target Tissue: Type of Lesion: SPLEEN: LYMPHOMA, Dose [Carcinogen]: 0.2 MG ON D 1 AND 7 AFTER BIRTH THEN 0.4 MG ON D 14 AND 21, Promoter: NONE USED) | tumour outcome (control, treated, inhibition, significance) (Carcinogen: TANNIC ACID, 1401-55-4, 5.5 MG IN 0.05 ML SUNFLOWER OIL 1/WK FOR 1 YR BEGINNING POST CARCINOGEN TREATMENT (STUDY DURATION: 24 MO), Route [Inhibitor]: GAVAGE, Strain/Sex: SWISS/FEMALE, Target Tissue: Type of Lesion: LUNG: PAPILLARY ADENOCARCINOMA, Dose [Carcinogen]: 25 MG/KG BW ON D 1, 7, 14 AND 21 AFTER BIRTH, Promoter: NONE USED) | tumour outcome (control, treated, inhibition, significance) (Carcinogen: TANNIC ACID, 1401-55-4, 5.5 MG IN 0.05 ML SUNFLOWER OIL 1/WK FOR 1 YR BEGINNING POST CARCINOGEN TREATMENT (STUDY DURATION: 24 MO), Route [Inhibitor]: GAVAGE, Strain/Sex: SWISS/FEMALE, Target Tissue: Type of Lesion: SPLEEN: LYMPHOMA, Dose [Carcinogen]: 25 MG/KG BW ON D 1, 7, 14 AND 21 AFTER BIRTH, Promoter: NONE USED) | tumour outcome (control, treated, inhibition, significance) (Carcinogen: TANNIC ACID, 1401-55-4, 5.5 MG IN 0.05 ML SUNFLOWER OIL 1/WK FOR 1 YR BEGINNING POST CARCINOGEN TREATMENT (STUDY DURATION: 24 MO), Route [Inhibitor]: GAVAGE, Strain/Sex: SWISS/MALE, Target Tissue: Type of Lesion: LUNG: PAPILLARY ADENOCARCINOMA, Dose [Carcinogen]: 25 MG/KG BW ON D 1, 7, 14 AND 21 AFTER BIRTH, Promoter: NONE USED) | tumour outcome (control, treated, inhibition, significance) (Carcinogen: TANNIC ACID, 1401-55-4, 5.5 MG IN 0.05 ML SUNFLOWER OIL 1/WK FOR 1 YR BEGINNING POST CARCINOGEN TREATMENT (STUDY DURATION: 24 MO), Route [Inhibitor]: GAVAGE, Strain/Sex: SWISS/MALE, Target Tissue: Type of Lesion: SPLEEN: LYMPHOMA, Dose [Carcinogen]: 25 MG/KG BW ON D 1, 7, 14 AND 21 AFTER BIRTH, Promoter: NONE USED) |
| --- | --- | --- | --- | --- | --- | --- | --- | --- | --- | --- | --- | --- | --- | --- | --- | --- | --- | --- |
| CC/C=C\C/C=C\C/C=C\CCCCCCCC(=O)O | 87%, 80%, 8%, not significant | 87%, 47%, 46%, p<0.005 | – | – | – | – | – | – | – | – | – | – | – | – | – | – | – | – |
| O=C(/C=C/C=C/c1ccc2c(c1)OCO2)N1CCCCC1 | – | – | 7/11 (64%), 9/12 (75%), -17%, not calculated | 3/13 (23%), 4/13 (31%), -35%, not calculated | 10/13 (77%), 10/13 (77%), 0%, not significant | 5/13 (38%), 2/13 (15%), 61%, not calculated | 2/13 (15%), 3/13 (23%), -53%, not calculated | 3/18 (17%), 2/19 (11%), 35%, not calculated | 2/18 (11%), 0/19 (0%), 100%, not calculated | 7/24 (29%), 1/23 (4%), 86%, p<0.05 | 5/24 (21%), 2/23 (9%), 57%, not calculated | 2/24 (8%), 0/23 (0%), 100%, not calculated | 6/24 (25%), 3/23 (13%), 48%, not calculated | 9/18 (50%), 7/19 (37%), 26%, not calculated | 2/8 (25%), 1/9 (11%), 56%, not calculated | 4/8 (50%), 4/9 (44%), 12%, not calculated | 3/12 (25%), 2/12 (17%), 32%, not calculated | 5/12 (42%), 3/12 (25%), 40%, not calculated |
